Source: patent US20230339991A1, “HYPOXIA-ACTIVATED DNA ALKYLATING AGENT AND MEDICAL USE THEREOF” (ASCENTAWITS PHARMACEUTICALS, LTD., priority 2020, published 2023)
“And” between values parts separate entries of the source, which are not always exact repeats. Equal entries are not always repeated. Where two headings read alike, the source gives them in different places. Marks after values point to notes of the source that are not given here.

Assays:
Plasma stability, monkey = assay type: in vitro ADME
Method: The pH of the plasma was checked and recorded. Note: a.
The final concentration of solvent was 0.5%.
The assay is performed in duplicate.

P-gp = P-gp (Homo sapiens, UniProt P08183); assay: P-gp substrate evaluation, MDCKII-MDR1 penetration test; conditions: for recovery at 2 h: dog
Method: (1) MDCKII-MDR1 cells were cultured in the cell culture bottle. The conditions of the incubator were 37° C., 5% of CO2, and 95% of the relative humidity. When the cell growth confluence was up to 70-90%, the cells were inoculated to the transwell.
The cell suspension was transferred to the upper compartment of the 96-well transwell, wherein each upper compartment contains 50 μL of the cell suspension. The final inoculum density was 5.45×10^5 cells/cm^2.
(1) The transwell culture plate of the MDCKII-MDRT cells was taken out from the incubator. The cell monolayer membrane was rinsed two times with the buffer solution and incubated at 37° C. for 30 min.
(2) The transport rate that the compound was transported from the top-end to the base-end was tested. 75 μL of the buffer solution contained the sample was added to each upper compartment (top-end), and 235 μL of the buffer solution was added to each lower compartment (base-end).
(3) The transport rate that the compound was transported from the base-end to the top-end was tested. 75 μL of the buffer solution was added to each upper compartment (top-end), and 235 μL of the buffer solution contained the sample was added to each lower compartment (base-end).
(6) The upper and lower transits were merged up and then incubated at 37° C. for 2 h.
(7) After the incubation was finished, 50 μL of the samples from each well of the upper compartment and the lower compartment of the transwell culture plate were respectively added to new sample tubes. 200 μL of the acetonitrile containing the internal standard (100 nM Alprazolam, 200 nM Labetalol, 200 nM caffeine and 2 μM Ketoprofen) was added to each sample tube. After the sample tubes were vortexed for 10 min, they were centrifuged at 3220 g for 30 min. 100 μL of the supernatant was taken and diluted with the same volume of the water to perform the LC-MS/MS analysis. Each sample was adopted to the three parallel incubation.
The peak area was calculated by the result of the ion chromatography. The permeability coefficient (Papp, unit: cm/s×10^−6) of the compound was calculated by the formula: […]
In the formula, “VA” refers to the volume of the solution on the acceptor (Ap→Bl was 0.235 mL, and Bl→Ap was 0.075 mL), “Area” refers to the area of the permeable membrane of the 96-well transwell (0.143 cm^2), “time” refers to the incubation time (in second), “[drug]acceptor” refers to the drug concentration of the acceptor after the incubation, and “[drug]initial, donor” refers to the initial concentration of the drug administration before the incubation.
The efflux ratio was calculated by the following formula: […]
In the formula, “Papp (B-A)” refers to the permeability coefficient from the base-end to the top-end, and the term “Papp (A-B)” refers to the permeability coefficient from the top-end to the base-end.
The recovery was calculated by the following formula: […]
In the formula, “VA” refers to the volume of the solution on the acceptor (mL), “VD” refers to the volume of the solution on the donor (mL), “[drug]acceptor” refers to the drug concentration of the acceptor after the incubation, “[drug]donor” refers to the drug concentration of the donor after the incubation, and the term “[drug]initial, donor” refers to the initial concentration of the drug administration before the incubation.

MiaPaCa-2 cells = assay: Clonogenic assay, MiaPaCa-2; assay type: cell-based, human; conditions: for IC90: Homo sapiens, MIA PaCa-2, 3 h
Method: The following PSN-1 cells, PANC1 cells, MiaPaCa-2 cells, H460 cells, DLD-1 WT (wild type) cells, DLD-1 BRCA2 KO (BRCA2 deletion) cells were seeded in 10 cm vitreous cell culture plates at specific cell numbers and incubated for 2 days at 37° C. and under the conditions of 5% CO2, 95% air and 100% relative humidity. On day 3, test compounds TH302 or AST-002-P2 at the specific concentrations were added to the cells, and incubated for 3 hours together with the cells under normoxic (21% O2) and hypoxic conditions (<0.01% O2), respectively. After cells were stimulated by compounds, the cells were washed once with 1×PBS and digested into single cells with pancreatic enzymes for cell counting. The above cells in specific cell numbers were reseeded in a new culture plate and cultured for 7 days to perform single cell colony formation. When single cells in compound culture plates stimulated under normoxic conditions proliferated to about 50 cells, the cultures were removed and stained with 0.5% crystal violet for 40 minutes. After staining, cells were counted for colonies using Colony Counter (VWR) and the IC90 was calculated.

[1] = Blood-brain barrier experiment, brain and plasma concentrations after IV dosing; assay type: in vivo, CD-1 mice; conditions: for half-life: read-out: T½ (converted)
Method: Three CD-1 […] were administered 1 mg/kg of the test compound intravenously at each time point. Blood and brain tissue were collected at 5 min, 15 min, 1 h, 2 h, 4 h and 8 h after administration.

[2] = CD-1, mouse, plasma, IV 1 mg/kg
[3] = IV 1 mg/kg, 0.083 h, single animals, 1 mg/kg
[4] = IV 1 mg/kg, 0.25 h, single animals, 1 mg/kg
[5] = IV 1 mg/kg, 1 h, single animals, 1 mg/kg
[6] = IV 1 mg/kg, 2 h, single animals, 1 mg/kg
[7] = IV 1 mg/kg, 4 h, single animals
[8] = IV 1 mg/kg, 8 h, single animals

P-gp, sequence (P08183 whole entry): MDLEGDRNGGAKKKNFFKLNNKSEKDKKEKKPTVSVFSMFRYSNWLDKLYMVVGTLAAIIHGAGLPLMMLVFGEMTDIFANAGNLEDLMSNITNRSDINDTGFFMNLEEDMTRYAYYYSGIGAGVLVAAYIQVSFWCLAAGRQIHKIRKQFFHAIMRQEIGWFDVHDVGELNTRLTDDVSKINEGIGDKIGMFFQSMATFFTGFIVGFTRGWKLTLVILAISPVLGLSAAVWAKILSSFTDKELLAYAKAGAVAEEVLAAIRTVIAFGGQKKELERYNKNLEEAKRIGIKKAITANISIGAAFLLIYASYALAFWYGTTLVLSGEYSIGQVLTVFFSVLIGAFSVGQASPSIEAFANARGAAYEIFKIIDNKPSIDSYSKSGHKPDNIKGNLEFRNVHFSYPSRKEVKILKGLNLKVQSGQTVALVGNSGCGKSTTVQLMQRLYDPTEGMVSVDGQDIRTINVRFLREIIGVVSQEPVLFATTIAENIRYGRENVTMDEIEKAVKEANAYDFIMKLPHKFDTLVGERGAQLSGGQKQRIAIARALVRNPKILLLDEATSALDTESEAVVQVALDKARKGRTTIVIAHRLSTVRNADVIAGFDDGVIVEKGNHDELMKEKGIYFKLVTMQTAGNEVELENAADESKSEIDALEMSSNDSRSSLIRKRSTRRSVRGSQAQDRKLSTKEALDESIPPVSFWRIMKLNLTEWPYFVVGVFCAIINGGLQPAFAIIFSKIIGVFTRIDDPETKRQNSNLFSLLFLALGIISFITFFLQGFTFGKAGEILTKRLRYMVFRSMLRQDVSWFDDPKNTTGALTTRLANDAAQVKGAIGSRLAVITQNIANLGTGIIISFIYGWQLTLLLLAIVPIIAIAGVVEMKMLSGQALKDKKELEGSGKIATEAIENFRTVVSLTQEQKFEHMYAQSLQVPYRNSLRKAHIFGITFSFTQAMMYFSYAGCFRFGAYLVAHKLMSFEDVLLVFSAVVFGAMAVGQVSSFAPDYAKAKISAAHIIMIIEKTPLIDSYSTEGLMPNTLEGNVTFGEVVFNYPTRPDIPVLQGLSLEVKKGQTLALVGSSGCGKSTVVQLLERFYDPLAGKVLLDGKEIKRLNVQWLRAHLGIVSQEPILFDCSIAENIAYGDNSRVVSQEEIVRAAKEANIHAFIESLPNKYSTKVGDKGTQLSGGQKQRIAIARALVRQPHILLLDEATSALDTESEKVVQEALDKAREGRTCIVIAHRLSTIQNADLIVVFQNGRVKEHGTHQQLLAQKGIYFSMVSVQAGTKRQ

Question: Which results are given for O=[N+]([O-])c1ccc(C(OP(=O)(N2CC2)N2CC2)C(F)(F)F)c2ccccc12 (racemic) [Compound A]?
Answer: Remaining percentage (%) (Plasma stability, monkey; Monkey plasma, 15 min): 97.9 ± 3.72%; Remaining percentage (%) (Plasma stability, monkey; Monkey plasma, 60 min): 103 ± 4.19%; Remaining percentage (%) (Plasma stability, monkey; Monkey plasma, 90 min): 92.3 ± 2.15%; Remaining percentage (%) (Plasma stability, monkey; Monkey plasma, 120 min): 87.4% and 87.4 ± 1.59%; Remaining percentage (%) (Plasma stability, monkey; Monkey plasma, 2 h time course, 0 min): 100%; t½ (Plasma stability, monkey; Monkey plasma, in vitro): >373* min; half-life at 5 µM (Plasma stability, monkey; Monkey plasma, in vitro, read-out: t½): > 373 min; Remaining percentage (%) (Plasma stability, monkey; Monkey plasma, time course, 30 min): 107 ± 2.78%; plasma stability (Plasma stability, monkey; monkey plasma): stable

Question: Which recovery at 2 h (P-gp; MDCK-MDR1, Recovery (%) AP-BL, verapamil 0 μM) does the source give for O=[N+]([O-])c1ccc([C@@H](OP(=O)(N2CC2)N2CC2)C(F)(F)F)c2ccccc12 (single isomer, unassigned) [Compound C] here?
Answer: 57.8%

Question: What about the recovery at 2 h (P-gp; MDCK-MDR1, Recovery (%) AP-BL, verapamil 100 μM) of the same compound?
Answer: 61.5%

Question: What about the recovery at 2 h (P-gp; MDCK-MDR1, Recovery (%) BL-AP, verapamil 100 μM) of the same compound?
Answer: 66.3%

Question: What about the Pgp substrate status (P-gp; with and without verapamil) of the same compound?
Answer: not substrates for Pgp

Question: And the IC90 (MiaPaCa-2 cells; 21% O2, read-out: IC90 Normoxia)?
Answer: > 10000 nM

Question: And the IC90 (MiaPaCa-2 cells; <0.01% O2, read-out: IC90 Hypoxia)?
Answer: 159 nM

Question: And the HCR (MiaPaCa-2 cells; IC90 ratio normoxic/N2)?
Answer: >63

Question: And the HCR (MiaPaCa-2 cells; IC90 ratio normoxic/N2, listed as compound C)?
Answer: > 63

Question: What about the concentration at 0.083 h ([1]; CD-1, mouse, brain, iv, 1 mg/kg, IV 1 mg/kg, 0.083 h, single animals, read-out: Brain concentration) of the same compound?
Answer: 415 ng/g

Question: And the concentration at 0.25 h ([1]; CD-1, mouse, brain, iv, 1 mg/kg, IV 1 mg/kg, 0.25 h, single animals, read-out: Brain concentration)?
Answer: 146 ng/g

Question: What about the concentration at 1 h ([1]; CD-1, mouse, brain, iv, 1 mg/kg, IV 1 mg/kg, 1 h, single animals, read-out: Brain concentration) of the same compound?
Answer: 28.6 ng/g

Question: What about the Kp at 0.083 h ([1]; CD-1, mouse, brain/plasma, iv, 1 mg/kg, IV 1 mg/kg, 0.083 h, read-out: Mean Ratio (Brain/Plasma)) of the same compound?
Answer: 1.07

Question: What about the Kp at 0.083 h ([1]; CD-1, mouse, brain/plasma, iv, 1 mg/kg, IV 1 mg/kg, 0.083 h, single animals, read-out: Ratio (Brain/Plasma)) of the same compound?
Answer: 0.99

Question: What about the Kp at 0.25 h ([1]; CD-1, mouse, brain/plasma, iv, 1 mg/kg, IV 1 mg/kg, 0.25 h, single animals, read-out: Ratio (Brain/Plasma)) of the same compound?
Answer: 0.82

Question: And the Kp at 1 h ([1]; CD-1, mouse, brain/plasma, iv, 1 mg/kg, IV 1 mg/kg, 1 h, read-out: Mean Ratio (Brain/Plasma))?
Answer: 0.54

Question: What about the Kp at 1 h ([1]; CD-1, mouse, brain/plasma, iv, 1 mg/kg, IV 1 mg/kg, 1 h, single animals, read-out: Ratio (Brain/Plasma)) of the same compound?
Answer: 0.52

Question: And the Kp at 2 h ([1]; CD-1, mouse, brain/plasma, iv, 1 mg/kg, IV 1 mg/kg, 2 h, read-out: Mean Ratio (Brain/Plasma))?
Answer: 1.11

Question: What about the Kp ([1]; CD-1, mouse, brain/plasma, iv, 1 mg/kg, IV 1 mg/kg, read-out: AUClnf Ratio (Brain/Plasma)) of the same compound?
Answer: 0.73

Question: And the concentration at 0.083 h ([1]; CD-1, mouse, plasma, iv, 1 mg/kg, IV 1 mg/kg, 0.083 h, single animals, read-out: Plasma concentration)?
Answer: 417 ng/mL

Question: And the concentration at 0.25 h ([1]; CD-1, mouse, plasma, iv, 1 mg/kg, IV 1 mg/kg, 0.25 h, single animals, read-out: Plasma concentration)?
Answer: 179 ng/mL

Question: What about the half-life ([1]; CD-1, mouse, brain tissue, IV 1 mg/kg) of the same compound?
Answer: 21 min

Question: What about the AUC(0-t) [1, 2] of the same compound?
Answer: 188 ng·h/mL

Question: And the C0 [1, 2]?
Answer: 694 ng/mL

Question: What about the half-life [1, 2] of the same compound?
Answer: 18 min

Question: What about the Brain concentration [1, 3] of the same compound?
Answer: 541.99 ng/g and 377.29 ng/g

Question: What about the Plasma concentration [1, 3] of the same compound?
Answer: 390.41 ng/mL and 456.85 ng/mL

Question: What about the “Ratio (Brain/Plasma)” value [1, 3] of the same compound?
Answer: 1.39 and 0.83

Question: And the Brain concentration [1, 4]?
Answer: 131.63 ng/g and 120.75 ng/g

Question: What about the Plasma concentration [1, 4] of the same compound?
Answer: 132.02 ng/mL and 154.92 ng/mL

Question: And the “Ratio (Brain/Plasma)” value [1, 4]?
Answer: 1.00 and 0.78

Question: And the Brain concentration [1, 5]?
Answer: 18.01 ng/g and 15.01 ng/g

Question: What about the Plasma concentration [1, 5] of the same compound?
Answer: 54.81 ng/mL and 25.61 ng/mL and 37.23 ng/mL

Question: What about the “Ratio (Brain/Plasma)” value [1, 5] of the same compound?
Answer: 0.70 and 0.40

Question: And the Brain concentration [1, 6]?
Answer: 8.31 ng/g and 1.90 ng/g and BLOQ

Question: And the Plasma concentration [1, 6]?
Answer: 4.69 ng/mL and 2.16 ng/mL and 1.64 ng/mL

Question: What about the “Ratio (Brain/Plasma)” value [1, 6] of the same compound?
Answer: 0.88

Question: What about the Brain concentration [1, 7] of the same compound?
Answer: BLOQ

Question: And the Plasma concentration [1, 7]?
Answer: BLOQ

Question: What about the Brain concentration [1, 8] of the same compound?
Answer: BLOQ

Question: What about the Plasma concentration [1, 8] of the same compound?
Answer: BLOQ

Question: What about the AUClast ([1]; brain tissue, IV 1 mg/kg) of the same compound?
Answer: 136.59 ng·h/g

Question: What about the AUClnf ([1]; brain tissue, IV 1 mg/kg) of the same compound?
Answer: 138.68 ng·h/g

Question: And the MRTlnf_obs ([1]; brain tissue, IV 1 mg/kg)?
Answer: 20.4 min

Question: And the blood-brain barrier penetration ([1]; detected in brain tissue)?
Answer: can penetrate the blood-brain barrier

Question: And the Cl_obs ([1]; plasma, IV 1 mg/kg)?
Answer: 87.92 mL/min/kg

Question: What about the MRTlnf_obs ([1]; plasma, IV 1 mg/kg) of the same compound?
Answer: 19.8 min

Question: And the Vss_obs ([1]; plasma, IV 1 mg/kg)?
Answer: 1.73 L/kg
